Assay results published in US20260098061A1, “EPHA2-BINDING PENDING PEPTIDE AND COMPOSITION COMPRISING SAME” (PeptiDream Inc., priority 2022, published 2026).
Numbered stars: 1 amine (or outer) side, 2 acyl side, 3 side chain; on linkers, the order of the positions; unused ones are H or OH. Bridge positions count the residues as written; N and C are the ends. Square brackets hold non-standard residues; d marks the D form. Side chains are listed from the residue outwards. Peptide text beside a SMILES is read from it. * marks the point of attachment. Trp(1-Me,7-Cl) = Cn1cc(C[C@H](N)C(=O)O)c2cccc(Cl)c21; dPhe(3-CONH2) = NC(=O)c1cccc(C[C@@H](N)C(=O)O)c1; Piperazinyl(4-CH2COOH) = O=C(O)CN1CCN(*)CC1; Trp(1-Me) = Cn1cc(C[C@H](N)C(=O)O)c2ccccc21; NMe3Pal = CN[C@@H](Cc1cccnc1)C(=O)O; NMeF = CN[C@@H](Cc1ccccc1)C(=O)O; hArg = N=C(N)NCCCC[C@H](N)C(=O)O; hCit = NC(=O)NCCCC[C@H](N)C(=O)O; Gly(cBu) = N[C@H](C(=O)O)C1CCC1; NMeE = CN[C@@H](CCC(=O)O)C(=O)O; Aad = N[C@@H](CCCC(=O)O)C(=O)O; NMeN = CN[C@@H](CC(N)=O)C(=O)O; CO = O=C([*:1])[*:2]

biological target: T1, Recombinant Human EphA2 Fc Protein (Homo sapiens, UniProt P29317); assay: SPR interaction analysis (Biacore T200), kinetics of peptides against EphA2; type: binding; conditions: Recombinant Human EphA2 Fc Protein captured by Human Antibody Capture kit; single-cycle kinetics; 25° C.; HBS-P+ buffer with 1% DMSO
T1 construct: purchased Elabscience
In short: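 KD derived from ka and kd, fitted on baseline-subtracted sensorgrams from single-cycle kinetics of five peptide dilutions. Running buffer: HBS-P+ (pH 7.4) plus 1% DMSO, 25° C, Biacore T200. Recombinant human EphA2-Fc held on an antibody capture surface.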

Row | SMILES | Kd [nM]
1 | C[C@@H](O)[C@@H]1NC(=O)[C@H](Cc2cn(C)c3ccccc23)NC(=O)[C@H](CCCCNC(=O)N2CCN(CC(=O)O)CC2)NC(=O)[C@H](Cc2cn(C)c3c(Cl)cccc23)NC(=O)[C@H](CC(N)=O)N(C)C(=O)[C@H](CCCC(N)=O)NC(=O)[C@H](C2CCC2)NC(=O)[C@H](CC(N)=O)NC(=O)[C@H](Cc2ccccc2)N(C)C(=O)[C@@H](Cc2cccc(C(N)=O)c2)NC(=O)CSC[C@@H](C(N)=O)NC(=O)[C@H](CCCC(N)=O)NC1=O [PDC_EphA2-00019425, df3CON-MeF-N-Cbg-Hgn-MeN-W1Me7Cl-KCOpipzaa-W1Me-T-Hgn-C-NH2] ({CH2CO}-[dPhe(3-CONH2)][NMeF]N[Gly(cBu)][Aad](NH2)[NMeN][Trp(1-Me,7-Cl)]K([CO-Piperazinyl(4-CH2COOH)])[Trp(1-Me)]T[Aad](NH2)C-NH2; thioether N-12) | < 1
2 | C[C@@H](O)[C@@H]1NC(=O)[C@H](Cc2cn(C)c3ccccc23)NC(=O)[C@H](CCCCNC(N)=O)NC(=O)[C@H](Cc2cn(C)c3c(Cl)cccc23)NC(=O)[C@H](CCC(=O)O)N(C)C(=O)[C@H](CCCC(N)=O)NC(=O)[C@H](C2CCC2)NC(=O)[C@H](CC(N)=O)NC(=O)[C@H](Cc2ccccc2)N(C)C(=O)[C@@H](Cc2cccc(C(N)=O)c2)NC(=O)CSC[C@@H](C(N)=O)NC(=O)[C@H](CCCCNC(=N)N)NC1=O [PDC_EphA2-00019426, df3CON-MeF-N-Cbg-Hgn-MeN-W1Me7Cl-Hcit-W1Me-T-Hgn-C-NH2] ({CH2CO}-[dPhe(3-CONH2)][NMeF]N[Gly(cBu)][Aad](NH2)[NMeE][Trp(1-Me,7-Cl)][hCit][Trp(1-Me)]T[hArg]C-NH2; thioether N-12) | < 1
3 | C[C@@H](O)[C@@H]1NC(=O)[C@H](Cc2cn(C)c3ccccc23)NC(=O)[C@H](CCCCNC(N)=O)NC(=O)[C@H](Cc2cn(C)c3c(Cl)cccc23)NC(=O)[C@H](CC(N)=O)N(C)C(=O)[C@H](CCCC(N)=O)NC(=O)[C@H](C2CCC2)NC(=O)[C@H](CC(N)=O)NC(=O)[C@H](Cc2cccnc2)N(C)C(=O)[C@@H](Cc2cccc(C(N)=O)c2)NC(=O)CSC[C@@H](C(N)=O)NC(=O)[C@H](CCCNC(=N)N)NC1=O [PDC_EphA2-00019428, df3CON-Me3Py-N-Cbg-Hgn-MeN-W1Me7Cl-Hcit-W1Me-T-R-C-NH2] ({CH2CO}-[dPhe(3-CONH2)][NMe3Pal]N[Gly(cBu)][Aad](NH2)[NMeN][Trp(1-Me,7-Cl)][hCit][Trp(1-Me)]TRC-NH2; thioether N-12) | < 1
4 | C[C@@H](O)[C@@H]1NC(=O)[C@H](Cc2cn(C)c3ccccc23)NC(=O)[C@H](CCCCNC(N)=O)NC(=O)[C@H](Cc2cn(C)c3c(Cl)cccc23)NC(=O)[C@H](CC(N)=O)N(C)C(=O)[C@H](CCCC(N)=O)NC(=O)[C@H](C2CCC2)NC(=O)[C@H](CC(N)=O)NC(=O)[C@H](Cc2cccnc2)N(C)C(=O)[C@@H](Cc2cccc(C(N)=O)c2)NC(=O)CSC[C@@H](C(N)=O)NC(=O)[C@H](CCCCNC(=N)N)NC1=O [PDC_EphA2-00019429, df3CON-Me3Py-N-Cbg-Hgn-MeN-W1Me7Cl-Hcit-W1Me-T-Har-C-NH2] ({CH2CO}-[dPhe(3-CONH2)][NMe3Pal]N[Gly(cBu)][Aad](NH2)[NMeN][Trp(1-Me,7-Cl)][hCit][Trp(1-Me)]T[hArg]C-NH2; thioether N-12) | < 1
5 | C[C@@H](O)[C@@H]1NC(=O)[C@H](Cc2cn(C)c3ccccc23)NC(=O)[C@H](CCCCNC(=O)N2CCN(CC(=O)O)CC2)NC(=O)[C@H](Cc2cn(C)c3c(Cl)cccc23)NC(=O)[C@H](CC(N)=O)N(C)C(=O)[C@H](CCCC(N)=O)NC(=O)[C@H](C2CCC2)NC(=O)[C@H](CC(N)=O)NC(=O)[C@H](Cc2cccnc2)N(C)C(=O)[C@@H](Cc2cccc(C(N)=O)c2)NC(=O)CSC[C@@H](C(N)=O)NC(=O)[C@H](CCCCNC(=N)N)NC1=O [PDC_EphA2-00019430, df3CON-Me3Py-N-Cbg-Hgn-MeN-W1Me7Cl-KCOpipzaa-W1Me-T-Har-C-NH2] ({CH2CO}-[dPhe(3-CONH2)][NMe3Pal]N[Gly(cBu)][Aad](NH2)[NMeN][Trp(1-Me,7-Cl)]K([CO-Piperazinyl(4-CH2COOH)])[Trp(1-Me)]T[hArg]C-NH2; thioether N-12) | < 1
